pIC50: −log10 of the molar value. Read-outs that look alike come from different tables or passages of the source.
Assays:
[1] = test system: T1, acetylcholinesterase (AChE), S-strain DBM larvae; assay: Ellman colorimetric assay, […] nm, linear regression; type: biochemical, Plutella xylostella; settings: acetylthiocholine iodide 0.5 mM, DTNB 0.3 mM, 0.1 M phosphate pH 7.0, 6 min, read-out: I50
T1 construct: gene ace1; native, 1,500 g supernatant of whole 4th instar larva homogenate, not purified

[2] = test system: T2, acetylcholinesterase (AChE), R-strain DBM larvae; assay: Ellman colorimetric assay, […] nm, linear regression; type: biochemical, Plutella xylostella; settings: acetylthiocholine iodide 0.5 mM, DTNB 0.3 mM, 0.1 M phosphate pH 7.0, 6 min; above tested range (10^-3 to 10^-8 M); technical grade 90% a.i.; read-out: I50
T2 construct: gene ace1; native, 1,500 g supernatant of whole 4th instar larva homogenate, not purified

Compound	pIC50 ([1]; above tested range (10^-3 to 10^-8 M), technical grade 84% a.i.)	pIC50 ([1]; technical grade 90% a.i.)	pIC50 [2]
CCOC(=O)CC(SP(=S)(OC)OC)C(=O)OCC (stereo not drawn) [Malathion]	1.48		
CNC(=O)ON=C(C)SC [Methomyl]		3.45	2.63

Reference: paper PMC2364878, “Insecticidal Effects of Organotin(IV) Compounds on Plutella Xylostella (L.) Larvae. II. Inhibitory Potencies Against Acetylcholinesterase and Evidence for Synergism in Tests With Bacillus Thuringiensis(BER.) and Malathion” (Metal-Based Drugs, 1994)
